Values quoted from earlier work in US20220241275A1, “TARGETED TREATMENT OF CANCERS WITH DYSREGULATED FIBROBLAST GROWTH FACTOR RECEPTOR SIGNALING” (G1 Therapeutics, Inc., priority 2019, published 2022).
Where two headings read alike, the source gives them in different places.

Experiments:
FGFR1 = FGFR1 (Homo sapiens, UniProt P11362)
FGFR2 = FGFR2 (Homo sapiens, UniProt P21802)
FGFR3 = FGFR3 (Homo sapiens, UniProt P22607)
FGFR4 = FGFR4 (Homo sapiens, UniProt P22455)
VEGFR2 = VEGFR2 (Homo sapiens, UniProt P35968); conditions: cell-free assays
[1] = system: FGFR1-amplified squamous NSCLC and FGFR3-mutant urothelial cancer; conditions: doses >=100 mg, phase I dose escalation trial

FGFR4, sequence (P22455 22-802): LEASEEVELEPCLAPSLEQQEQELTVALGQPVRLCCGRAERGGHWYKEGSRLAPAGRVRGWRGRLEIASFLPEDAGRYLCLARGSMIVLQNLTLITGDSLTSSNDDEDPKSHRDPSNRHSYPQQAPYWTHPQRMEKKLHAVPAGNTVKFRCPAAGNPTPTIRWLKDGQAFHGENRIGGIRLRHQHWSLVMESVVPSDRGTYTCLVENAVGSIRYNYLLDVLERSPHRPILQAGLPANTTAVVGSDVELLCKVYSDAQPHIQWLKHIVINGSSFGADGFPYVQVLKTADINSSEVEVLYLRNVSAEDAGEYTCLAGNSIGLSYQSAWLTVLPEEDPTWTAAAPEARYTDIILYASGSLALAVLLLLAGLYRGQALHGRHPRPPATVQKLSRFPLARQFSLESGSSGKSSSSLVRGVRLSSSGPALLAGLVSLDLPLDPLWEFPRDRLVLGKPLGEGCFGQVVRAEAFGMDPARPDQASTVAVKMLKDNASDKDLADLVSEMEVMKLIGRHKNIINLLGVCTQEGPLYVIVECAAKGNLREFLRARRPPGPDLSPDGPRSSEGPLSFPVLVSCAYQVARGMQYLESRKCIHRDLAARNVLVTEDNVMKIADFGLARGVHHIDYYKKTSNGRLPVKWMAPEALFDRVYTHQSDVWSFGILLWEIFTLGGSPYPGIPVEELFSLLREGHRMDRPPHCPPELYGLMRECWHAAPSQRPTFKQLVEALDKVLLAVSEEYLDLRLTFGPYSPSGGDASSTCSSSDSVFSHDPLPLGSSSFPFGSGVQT
VEGFR2, sequence (P35968 20-1356, species assumed): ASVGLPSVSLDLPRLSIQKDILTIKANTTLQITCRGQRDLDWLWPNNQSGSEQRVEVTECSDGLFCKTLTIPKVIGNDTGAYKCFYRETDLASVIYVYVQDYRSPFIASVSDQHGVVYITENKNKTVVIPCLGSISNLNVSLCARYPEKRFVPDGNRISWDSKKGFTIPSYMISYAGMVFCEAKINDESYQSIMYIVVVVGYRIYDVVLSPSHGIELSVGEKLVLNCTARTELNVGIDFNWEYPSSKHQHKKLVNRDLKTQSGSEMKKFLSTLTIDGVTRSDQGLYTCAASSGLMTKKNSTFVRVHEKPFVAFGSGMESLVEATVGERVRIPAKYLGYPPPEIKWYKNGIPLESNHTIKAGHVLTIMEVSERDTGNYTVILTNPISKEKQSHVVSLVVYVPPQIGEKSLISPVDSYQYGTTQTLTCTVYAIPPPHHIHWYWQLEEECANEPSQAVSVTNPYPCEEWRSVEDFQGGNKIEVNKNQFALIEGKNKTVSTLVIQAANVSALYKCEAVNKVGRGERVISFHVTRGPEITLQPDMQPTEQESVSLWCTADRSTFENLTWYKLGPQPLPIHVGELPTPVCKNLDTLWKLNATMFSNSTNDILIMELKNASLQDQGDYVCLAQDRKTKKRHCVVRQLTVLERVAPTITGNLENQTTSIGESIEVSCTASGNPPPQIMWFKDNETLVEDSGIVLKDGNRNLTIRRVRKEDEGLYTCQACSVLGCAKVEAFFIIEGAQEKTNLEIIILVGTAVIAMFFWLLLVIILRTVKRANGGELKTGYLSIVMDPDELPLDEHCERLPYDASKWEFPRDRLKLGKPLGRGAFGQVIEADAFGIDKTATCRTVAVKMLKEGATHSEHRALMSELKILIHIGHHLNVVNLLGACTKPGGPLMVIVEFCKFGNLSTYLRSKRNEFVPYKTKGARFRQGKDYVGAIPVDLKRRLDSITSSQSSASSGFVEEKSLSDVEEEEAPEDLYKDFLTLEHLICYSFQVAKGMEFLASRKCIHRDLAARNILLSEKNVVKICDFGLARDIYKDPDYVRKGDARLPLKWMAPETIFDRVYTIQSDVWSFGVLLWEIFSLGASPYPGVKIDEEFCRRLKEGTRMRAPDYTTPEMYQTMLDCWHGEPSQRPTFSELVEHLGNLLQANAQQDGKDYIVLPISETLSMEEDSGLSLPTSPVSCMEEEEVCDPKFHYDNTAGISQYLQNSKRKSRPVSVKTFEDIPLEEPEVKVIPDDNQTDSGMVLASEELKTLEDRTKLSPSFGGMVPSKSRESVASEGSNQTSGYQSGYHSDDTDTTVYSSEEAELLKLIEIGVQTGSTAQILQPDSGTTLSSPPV
FGFR2, sequence (P21802 22-821): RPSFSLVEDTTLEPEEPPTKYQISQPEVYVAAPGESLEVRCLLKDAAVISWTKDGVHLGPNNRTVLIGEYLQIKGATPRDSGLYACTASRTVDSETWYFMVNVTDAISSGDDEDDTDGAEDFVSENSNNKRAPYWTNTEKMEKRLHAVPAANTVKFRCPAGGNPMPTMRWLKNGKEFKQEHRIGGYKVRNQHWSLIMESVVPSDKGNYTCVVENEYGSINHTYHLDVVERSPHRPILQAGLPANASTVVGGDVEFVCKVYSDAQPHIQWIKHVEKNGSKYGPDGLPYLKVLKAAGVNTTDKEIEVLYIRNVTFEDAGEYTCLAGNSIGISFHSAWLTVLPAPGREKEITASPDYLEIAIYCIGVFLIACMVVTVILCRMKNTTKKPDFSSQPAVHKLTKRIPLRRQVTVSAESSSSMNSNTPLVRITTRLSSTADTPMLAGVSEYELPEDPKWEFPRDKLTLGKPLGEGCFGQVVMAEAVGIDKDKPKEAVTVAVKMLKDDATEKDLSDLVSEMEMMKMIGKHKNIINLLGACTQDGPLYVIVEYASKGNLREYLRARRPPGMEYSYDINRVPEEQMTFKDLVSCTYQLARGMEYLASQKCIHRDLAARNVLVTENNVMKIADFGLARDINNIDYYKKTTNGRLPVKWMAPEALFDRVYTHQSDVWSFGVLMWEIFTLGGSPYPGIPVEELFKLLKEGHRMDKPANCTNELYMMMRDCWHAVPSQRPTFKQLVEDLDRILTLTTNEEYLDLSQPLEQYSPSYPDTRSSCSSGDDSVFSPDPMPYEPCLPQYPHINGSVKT
FGFR1, sequence (P11362 22-822): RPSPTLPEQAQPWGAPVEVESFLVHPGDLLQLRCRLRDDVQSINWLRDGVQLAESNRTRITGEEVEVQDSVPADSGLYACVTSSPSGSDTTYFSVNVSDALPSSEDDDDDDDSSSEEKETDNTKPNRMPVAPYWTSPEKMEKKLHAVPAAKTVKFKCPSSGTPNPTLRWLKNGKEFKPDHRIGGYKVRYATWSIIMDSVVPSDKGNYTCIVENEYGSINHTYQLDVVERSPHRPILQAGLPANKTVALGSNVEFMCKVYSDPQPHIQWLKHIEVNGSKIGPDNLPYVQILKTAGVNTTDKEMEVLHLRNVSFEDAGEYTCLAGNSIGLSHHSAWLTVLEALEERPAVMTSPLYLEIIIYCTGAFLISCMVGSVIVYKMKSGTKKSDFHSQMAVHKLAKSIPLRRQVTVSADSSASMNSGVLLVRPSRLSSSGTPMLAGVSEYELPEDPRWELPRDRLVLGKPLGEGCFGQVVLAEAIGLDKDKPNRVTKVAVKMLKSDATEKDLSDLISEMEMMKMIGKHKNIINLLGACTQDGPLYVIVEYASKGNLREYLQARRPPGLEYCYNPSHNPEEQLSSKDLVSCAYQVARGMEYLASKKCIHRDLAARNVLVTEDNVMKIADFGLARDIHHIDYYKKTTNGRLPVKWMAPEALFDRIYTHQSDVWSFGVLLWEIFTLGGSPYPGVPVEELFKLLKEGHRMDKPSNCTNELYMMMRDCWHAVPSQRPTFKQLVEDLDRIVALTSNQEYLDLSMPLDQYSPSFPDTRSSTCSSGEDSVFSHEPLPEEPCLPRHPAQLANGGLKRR
FGFR3, sequence (P22607 23-806): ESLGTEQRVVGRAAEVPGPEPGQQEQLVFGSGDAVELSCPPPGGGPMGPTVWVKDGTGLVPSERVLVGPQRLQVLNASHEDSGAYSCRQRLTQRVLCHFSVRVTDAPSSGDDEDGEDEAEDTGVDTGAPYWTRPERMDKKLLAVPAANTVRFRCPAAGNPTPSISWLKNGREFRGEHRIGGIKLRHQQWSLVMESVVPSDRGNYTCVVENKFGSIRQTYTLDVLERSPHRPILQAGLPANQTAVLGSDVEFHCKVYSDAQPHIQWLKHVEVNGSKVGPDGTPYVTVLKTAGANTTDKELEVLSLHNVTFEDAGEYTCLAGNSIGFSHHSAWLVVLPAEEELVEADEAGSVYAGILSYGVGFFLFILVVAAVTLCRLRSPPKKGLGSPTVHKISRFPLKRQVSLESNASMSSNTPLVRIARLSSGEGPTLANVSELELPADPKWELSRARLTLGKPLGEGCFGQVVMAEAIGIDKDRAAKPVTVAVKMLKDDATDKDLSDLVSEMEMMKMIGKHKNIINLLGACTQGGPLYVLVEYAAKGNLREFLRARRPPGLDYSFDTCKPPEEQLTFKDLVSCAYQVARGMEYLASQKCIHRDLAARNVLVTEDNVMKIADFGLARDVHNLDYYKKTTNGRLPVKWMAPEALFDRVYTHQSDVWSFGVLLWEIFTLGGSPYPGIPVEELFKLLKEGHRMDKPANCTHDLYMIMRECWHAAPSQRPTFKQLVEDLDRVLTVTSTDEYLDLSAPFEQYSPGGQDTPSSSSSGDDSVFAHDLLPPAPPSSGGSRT

C=CC(=O)Nc1ccc(CN2C(=O)N(c3cc(OC)cc(OC)c3)Cc3cnc(Nc4ccc(N5CCN(C)CC5)cc4)nc32)cc1 [FIIN-2]
IC50 (FGFR1): 3.09 nM
IC50 (FGFR2): 4.3 nM
IC50 (FGFR3): 27 nM
IC50 (FGFR4; read-out: IC50 for FGFR4): 45.3 nM

CCN(CC)CCCCNc1ncc2cc(-c3cc(OC)cc(OC)c3)c(NC(=O)NC(C)(C)C)nc2n1 [PD173074]
IC50 (VEGFR2): 100 to 200 nM

CNC(=O)c1cccc2cc(Oc3ccnc(NC(=O)c4ccc(N5CCN(CCO)CC5)cc4)c3)ccc12 [SOMCL-085]
IC50 (FGFR4; read-out: IC50, FGFR4): 320 nM

CCN1CCN(c2ccc(Nc3cc(N(C)C(=O)Nc4c(Cl)c(OC)cc(OC)c4Cl)ncn3)cc2)CC1 [infigratinib]
confirmed partial responses [1]: six
